Data reported in ChEMBL document CHEMBL1159097, “Synthesis and structural and pharmacological properties of cyclopropane-based conformationally restricted analogs of 4-methylhistamine as histamine H3/H4 receptor ligands” (Bioorg Med Chem, 2010).

Experiments:
[1] = biological target: T1, Histamine H3 receptor (Homo sapiens, UniProt Q9Y5N1); assay: Binding affinity to histamine H3 receptor
[2] = biological target: T1, Histamine H3 receptor; assay: Displacement of [3H]Nalpha-methylahistamine from human histamine H3 receptor
[3] = biological target: Histamine H4 receptor (Homo sapiens, UniProt Q9H3N8); assay: Displacement of [3H]histamine from human histamine H4 receptor

T1 sequence (Q9Y5N1 whole entry): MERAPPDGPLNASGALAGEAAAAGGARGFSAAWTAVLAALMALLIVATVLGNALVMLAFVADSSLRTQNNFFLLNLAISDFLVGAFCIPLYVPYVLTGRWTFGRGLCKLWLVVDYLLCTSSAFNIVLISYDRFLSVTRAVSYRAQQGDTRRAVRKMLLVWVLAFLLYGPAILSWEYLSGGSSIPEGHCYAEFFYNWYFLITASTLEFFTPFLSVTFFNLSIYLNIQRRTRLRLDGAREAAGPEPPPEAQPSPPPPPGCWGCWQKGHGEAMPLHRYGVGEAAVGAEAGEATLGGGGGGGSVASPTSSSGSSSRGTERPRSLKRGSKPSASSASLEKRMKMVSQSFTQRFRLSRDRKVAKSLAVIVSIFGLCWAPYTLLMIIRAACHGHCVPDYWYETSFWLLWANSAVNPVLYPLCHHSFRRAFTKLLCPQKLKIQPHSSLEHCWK

Row | Ki [2] | Ki [3] | SMILES | Ki [1]
1 |  |  | NCC[C@@H]1C[C@@H]1c1cnc[nH]1 | 1.3 nM
2 | 38.7 nM | 148 nM | Cc1nc[nH]c1[C@@H]1C[C@H]1CCNCc1ccc(Cl)cc1 | 
3 | > 1000 nM | > 1000 nM | Cc1[nH]cnc1[C@@H]1C[C@H]1CNCc1ccc(Cl)cc1 | 
